According to the NIST ThermoML archive (doi:10.1021/je025625m):
± gives the expanded uncertainty stated by the source.

Assay: excess molar enthalpy (molar enthalpy of mixing); xn = mol fraction of the nth substance listed
Settings: 298.15 K, 101 kPa, Liquid

CCCCCCCl [1-chlorohexane] + c1ccccc1
Settings	excess molar enthalpy [kcal/mol]
x2 = 0.0723	0.00146 ± 0.000382
x2 = 0.0744	0.0017 ± 0.000406
x2 = 0.0805	0.00146 ± 0.000382
x2 = 0.0888	0.00167 ± 0.000406
x2 = 0.1407	0.00311 ± 0.00043
x2 = 0.1427	0.00351 ± 0.00043
x2 = 0.1437	0.00351 ± 0.00043
x2 = 0.2125	0.00538 ± 0.000454
x2 = 0.2862	0.00791 ± 0.000502
x2 = 0.3323	0.00992 ± 0.000526
x2 = 0.394	0.0127 ± 0.000574
x2 = 0.4431	0.0156 ± 0.000621
x2 = 0.5015	0.0189 ± 0.000669
x2 = 0.5375	0.0208 ± 0.000693
x2 = 0.541	0.0208 ± 0.000693
x2 = 0.5524	0.0218 ± 0.000717
x2 = 0.582	0.0229 ± 0.000717
x2 = 0.6153	0.0245 ± 0.000741
x2 = 0.6575	0.0256 ± 0.000765
x2 = 0.7164	0.0265 ± 0.000789
x2 = 0.7288	0.0266 ± 0.000789
x2 = 0.7352	0.0262 ± 0.000765
x2 = 0.7928	0.025 ± 0.000765
x2 = 0.8215	0.0242 ± 0.000741
x2 = 0.8484	0.0224 ± 0.000717
x2 = 0.8629	0.0207 ± 0.000693
x2 = 0.894	0.0174 ± 0.000645
x2 = 0.9274	0.0132 ± 0.000574
x2 = 0.9535	0.00918 ± 0.000502
